Read-outs that look alike come from different tables or passages of the source.
Legend:
μ-opioid receptor [1] = target: T1, μ-opioid receptor (Homo sapiens (Human), UniProt P35372); test: μ-opioid receptor [35S]GTPγS functional assay (HEK-293 cells); type: biochemical
Protocol: (§1) [^35S]GTPγS functional assays were conducted using freshly thawed μ-receptor membranes prepared in-house from a cell line expressing recombinant μ opioid receptor in a HEK-293, CHO or U-2 OS cell background, or purchased from a commercial source (Perkin Elmer, Shelton, Conn.; or DiscovRx, Fremont, Calif.). Assay reactions were prepared by sequentially adding the following reagents to binding buffer (100 mM NaCl, 10 mM MgCl2, 20 mM HEPES, pH 7.4) on ice (final concentrations indicated): membrane protein (0.026 mg/mL), saponin ([…]), GDP ([…]) and [^35S]GTPγS (0.20 nM; Perkin Elmer, Shelton, Conn.). The prepared membrane solution (190 μl/well) was transferred to 96-shallow well polypropylene plates containing 10 μl of 20× concentrated stock solutions of the agonist [D-Ala^2, N-methyl-Phe^4 Gly-ol^5]-enkephalin (DAMGO) prepared in dimethyl sulfoxide (DMSO). Plates were incubated for 30 min at about 25° C. with shaking. Reactions were terminated by rapid filtration onto 96-well Unifilter GF/B filter plates (Perkin Elmer, Shelton, Conn.) using a 96-well tissue harvester (Perkin Elmer, Shelton, Conn.) followed by three filtration washes with 200 μl of ice-cold wash buffer (10 mM NaH2PO4, 10 mM Na2HPO4, pH 7.4). Filter plates were subsequently dried at 50° C. for 2-3 hours. BetaScint scintillation cocktail (Perkin Elmer, Shelton, Conn.) was added (50 μl/well) and plates were counted using a Packard Top-Count for 1 min/well. Data were analyzed using the sigmoidal dose-response curve fitting functions in GraphPad PRISM v. 3.0, or an in-house function for non-linear, sigmoidal dose-response curve-fitting. [^35S]GTPγS functional assays can also be conducted using freshly thawed μ-receptor membranes prepared from a cell line expressing recombinant μ opioid receptor in a CHO-K1 cell background.
(§2) μ GTP EC50 is the concentration of a compound providing 50% of the maximal response for the compound at a μ-opioid receptor.
(§3) μ GTP Emax (%) is the maximal effect elicited by a compound relative to the effect elicited by DAMGO, a standard μ agonist.
In TABLE 4, activity response of certain Compounds of the Invention to the μ- and κ-opioid receptors was determined as described above for functional assays using HEK-293 cells.

μ-opioid receptor [2] = target: T1, μ-opioid receptor; test: μ-opioid receptor radioligand dose-displacement binding assay (HEK-293 cells)
Protocol: Radioligand dose-displacement binding assays for μ-opioid receptors used 0.3 nM [^3H]-diprenorphine (Perkin Elmer, Shelton, Conn.), with […] membrane protein/well in a final volume of 500 μl binding buffer (10 mM MgCl2, 1 mM EDTA, 5% DMSO, 50 mM HEPES, pH 7.4). Reactions were carried out in the absence or presence of increasing concentrations of unlabeled naloxone. All reactions were conducted in 96-deep well polypropylene plates for 2 hours at room temperature. Binding reactions were terminated by rapid filtration onto 96-well Unifilter GF/C filter plates (Perkin Elmer, Shelton, Conn.), presoaked in 0.5% polyethylenimine using a 96-well tissue harvester (Perkin Elmer, Shelton, Conn.) followed by performing three filtration washes with 500 μl of ice-cold binding buffer. Filter plates were subsequently dried at 50° C. for 2-3 hours. BetaScint scintillation cocktail (Perkin Elmer, Shelton, Conn.) was added (50 μl/well), and plates were counted using a Packard Top-Count for 1 min/well. The data were analyzed using the one-site competition curve fitting functions in GraphPad PRISM™ v. 3.0 or higher (San Diego, Calif.), or an in-house function for one-site competition curve-fitting.
(§4) In TABLE 3, binding affinity of certain Compounds of the Invention to the μ- and κ-opioid receptors was determined as described above using HEK-293 cells.

[3] = target: recombinant human kappa opioid receptor (κ) (Homo sapiens (Human), UniProt P41145); test: κ-opioid receptor radioligand dose-displacement binding assay (HEK-293 cells)
Protocol: Membranes from HEK-293 cells, CHO cells or U-2 OS cells expressing the recombinant human kappa opioid receptor (κ) were prepared by lysing cells in ice cold hypotonic buffer (2.5 mM MgCl2, 50 mM HEPES, pH 7.4) (10 mL/10 cm dish) followed by homogenization with a tissue grinder/Teflon pestle. Membranes from a cell line naturally expressing kappa opioid receptor can also be used. Membranes were collected by centrifugation at 30,000×g for 15 min at 4° C. and pellets were resuspended in hypotonic buffer to a final concentration of 1-3 mg/mL. Protein concentrations were determined using the BioRad protein assay reagent with bovine serum albumen as standard. Aliquots of κ receptor membranes were stored at −80° C.
Radioligand dose displacement assays used 0.4 nM [^3H]-U69,593 (GE Healthcare, Piscataway, N.J.; 40 Ci/mmole) with 15 μg membrane protein (recombinant κ opioid receptor expressed in HEK 293 cells; in-house prep) in a final volume of 200 μl binding buffer (5% DMSO, 50 mM Trizma base, pH 7.4). Non-specific binding was determined in the presence of 10 μM unlabeled naloxone or U69,593. All reactions were performed in 96-well polypropylene plates for 1 hour at a temperature of about 25° C. Binding reactions were terminated by rapid filtration onto 96-well Unifilter GF/C filter plates (Perkin Elmer, Shelton, Conn.) presoaked in 0.5% polyethylenimine (Sigma). Harvesting was performed using a 96-well tissue harvester (Perkin Elmer, Shelton, Conn.) followed by five filtration washes with 200 μl ice-cold binding buffer. Filter plates were subsequently dried at 50° C. for 1-2 hours. Fifty μl/well scintillation cocktail (Perkin Elmer, Shelton, Conn.) was added and plates were counted in a Packard Top-Count for 1 min/well.
as §4

μ-opioid receptor [4] = target: T1, μ-opioid receptor; test: μ-opioid receptor functional assay (U-2 OS cells); type: biochemical
Protocol: as §1, §2, §3

κ-opioid receptor = κ-opioid receptor (Homo sapiens (Human), UniProt P41145); test: κ-opioid receptor functional assay (U-2 OS cells); type: biochemical
Protocol: Functional [^35S]GTPγS binding assays were conducted as follows. κ opioid receptor membrane solution was prepared by sequentially adding final concentrations of 0.026 μg/μl κ membrane protein (in-house), 10 μg/mL saponin, 3 μM GDP and 0.20 nM [^35S]GTPγS to binding buffer (100 mM NaCl, 10 mM MgCl2, 20 mM HEPES, pH 7.4) on ice. The prepared membrane solution (190 μl/well) was transferred to 96-shallow well polypropylene plates containing 10 μl of 20× concentrated stock solutions of agonist prepared in DMSO. Plates were incubated for 30 min at a temperature of about 25° C. with shaking. Reactions were terminated by rapid filtration onto 96-well Unifilter GF/B filter plates (Perkin Elmer, Shelton, Conn.) using a 96-well tissue harvester (Packard) and followed by three filtration washes with 200 μl ice-cold binding buffer (10 mM NaH2PO4, 10 mM Na2HPO4, pH 7.4). Filter plates were subsequently dried at 50° C. for 2-3 hours. Fifty μl/well scintillation cocktail (Perkin Elmer, Shelton, Conn.) was added and plates were counted in a Packard Top-Count for 1 min/well.
κ GTP EC50 is the concentration of a compound providing 50% of the maximal response for the compound at a κ receptor.
κ GTP Emax (%) is the maximal effect elicited by a compound relative to the effect elicited by U69,593.
The following TABLE 5 provides results on the activity response of certain Compounds of the Invention at the μ- and κ-opioid receptors determined as described above using U-2 OS cells.

[5] = HEK-293 cells, relative to DAMGO
[6] = U-2 OS cells, relative to DAMGO
[7] = U-2 OS cells, relative to U69,593

“1-Chlorophenyl-3-((4bR,6S,8aS,9R)-11-(cyclopropylmethyl)-3-methoxy-5,6,7,8,9,10-hexahydro-9,4b-(epiminoethano)-8a,6-(epoxymethano)phenanthren-6-yl)urea [Compound 25]” was tested, and the EC50 (μ-opioid receptor [1]; HEK-293 cells, read-out: Opioid Receptor μ EC50) was 86.6 ± 11.5 nM, the “Opioid Receptor μ Emax (%)” value (μ-opioid receptor [1]; [5]) was 18.3 ± 0.88% and the Ki (μ-opioid receptor [2]) was 0.00351 ± 0.00045 µM. The Ki [3] was 2.56 ± 0.36 nM, the EC50 (μ-opioid receptor [4]; U-2 OS cells, read-out: Opioid Receptor μ EC50) was 4.33 ± 0.15 nM and the “Opioid Receptor μ Emax (%)” value (μ-opioid receptor [4]; [6]) was 99.7 ± 0.88%. For the same compound, the EC50 (κ-opioid receptor; U-2 OS cells, read-out: Opioid Receptor κ EC50) was 16.1 ± 0.82 nM and the “Opioid Receptor κ Emax (%)” value (κ-opioid receptor; [7]) was 121.3 ± 4.67%.
For `COc1ccc2c(c1)[C@]13CCN(CC4CC4)[C@H](C2)[C@]12CC[C@@](N1CCCC1)(CO2)C3` [Compound 32, (4bR,6S,8aS,9R)-11-(cyclopropylmethyl)-3-methoxy-6-(pyrrolidin-1-yl)-5,6,7,8,9,10-hexahydro-9,4b-(epiminoethano)-8a,6-(epoxymethano)phenanthrene], the EC50 (μ-opioid receptor [1]) was 1380 ± 234 nM, the Emax (μ-opioid receptor [1]; [5]) was 20.7 ± 0.33% and the EC50 (μ-opioid receptor [4]) was 255 ± 26.6 nM. For the same compound, the Emax (μ-opioid receptor [4]; [6]) was 69 ± 2.89%, the EC50 (κ-opioid receptor) was 26.6 ± 5.92 nM and the Emax (κ-opioid receptor; [7]) was 104 ± 3.61%.
In the case of `COc1ccc2c(c1)[C@]13CCN(CC4CC4)[C@H](C2)[C@]12CC[C@@](Nc1ccc(C(C)(C)C)cc1)(CO2)C3` [Compound 29, (4bR,6S,8aS,9R)—N-(4-tert-butyl)phenyl-11-(cyclopropylmethyl)-3-methoxy-5,6,7,8,9,10-hexahydro-9,4b-(epiminoethano)-8a,6-(epoxymethano)phenanthren-6-amine], the EC50 (μ-opioid receptor [1]) is reported as greater than 20000 nM, the Emax (μ-opioid receptor [1]; [5]) is reported as 7.5 ± 1.55% and the EC50 (μ-opioid receptor [4]) is reported as 2.02 ± 0.28 nM. It also gave an Emax (μ-opioid receptor [4]; [6]) of 43.3 ± 2.4%, an EC50 (κ-opioid receptor) of 3.08 ± 0.32 nM and an Emax (κ-opioid receptor; [7]) of 113 ± 4.41%.
`CN[C@]12CC[C@@]3(OC1)[C@H]1Cc4ccc(O)cc4[C@@]3(CCN1CC1CC1)C2` [Compound 37, (4bR,6S,8aS,9R)-11-(cyclopropylmethyl)-6-(methylamino)-5,6,7,8,9,10-hexahydro-9,4b-(epiminoethano)-8a,6-(epoxymethano)phenanthren-3-ol] showed an EC50 (μ-opioid receptor [1]) of 3.44 ± 0.78 nM and an Emax (μ-opioid receptor [1]; [5]) of 19 ± 1%.
`COc1ccc2c(c1)[C@]13CCN(CC4CC4)[C@H](C2)[C@]12CC[C@@](NCC1CCCCC1)(CO2)C3` [Compound 11, (4bR,6S,8aS,9R)—N-(cyclohexylmethyl)-11-(cyclopropylmethyl)-3-methoxy-5,6,7,8,9,10-hexahydro-9,4b-(epiminoethano)-8a,6-(epoxymethano)phenanthren-6-amine] gave an EC50 (μ-opioid receptor [1]) of 1.78 ± 0.05 nM, an Emax (μ-opioid receptor [1]; [5]) of 75.7 ± 4.1% and a Ki (μ-opioid receptor [2]) of 0.00093 ± 0.00011 µM. For the same compound, the Ki [3] was 0.052 ± 0.015 nM, the EC50 (μ-opioid receptor [4]) was 0.033 nM and the Emax (μ-opioid receptor [4]; [6]) was 101 ± 2.08%. It also gave an EC50 (κ-opioid receptor) of 0.042 nM and an Emax (κ-opioid receptor; [7]) of 101.3 ± 0.88%.
`COc1ccc2c(c1)[C@]13CCN(CC4CC4)[C@H](C2)[C@]12CC[C@@](Nc1ccccc1)(CO2)C3` [Compound 30, (4bR,6S,8aS,9R)-11-(cyclopropylmethyl)-3-methoxy-N-phenyl-5,6,7,8,9,10-hexahydro-9,4b-(epiminoethano)-8a,6-(epoxymethano)phenanthren-6-amine] was tested, and the EC50 (μ-opioid receptor [1]) was 83.6 ± 23.4 nM, the Emax (μ-opioid receptor [1]; [5]) was 20.3 ± 0.67% and the EC50 (μ-opioid receptor [4]) was 9.93 ± 0.87 nM. The Emax (μ-opioid receptor [4]; [6]) was 69 ± 2.65%, the EC50 (κ-opioid receptor) was 0.14 ± 0.039 nM and the Emax (κ-opioid receptor; [7]) was 105 ± 3.53%.
Compound `COc1ccc2c(c1)[C@]13CCN(CC4CC4)[C@H]([C@@H]2O)[C@]12CC[C@](O)(C3)C(=O)O2` [Compound 34, (4bR,6S,8aS,9R,10R)-11-(cyclopropylmethyl)-6,10-dihydroxy-3-methoxy-5,6,7,8,9,10-hexahydro-9,4b-(epiminoethano)-8a,6-(epoxymethano)phenanthren-15-one] has a Ki (μ-opioid receptor [2]; bound given in μM) greater than 20 µM and a Ki ([3]; bound given in μM) greater than 20000 nM.
For `CN1CC[C@]23C[C@@]4(N)CC[C@@]2(OC4)[C@H]1Cc1ccc(O)cc13` [Compound 35, (4bR,6S,8aS,9R)-6-amino-11-methyl-5,6,7,8,9,10-hexahydro-9,4b-(epiminoethano)-8a,6-(epoxymethano)phenanthren-3-ol], the EC50 (μ-opioid receptor [1]) was 291 ± 23.2 nM and the Emax (μ-opioid receptor [1]; [5]) was 50.3 ± 2.33%.
`COc1ccc2c(c1)[C@]13CCN(CC4CC4)[C@H](C2)[C@]12CC[C@@](N1CCOCC1)(CO2)C3` [Compound 31, (4bR,6S,8aS,9R)-11-(cyclopropylmethyl)-3-methoxy-6-morpholino-5,6,7,8,9,10-hexahydro-9,4b-(epiminoethano)-8a,6-(epoxymethano)phenanthrene] showed an EC50 (μ-opioid receptor [1]) of 887 ± 278 nM, an Emax (μ-opioid receptor [1]; [5]) of 9 ± 1.15% and an EC50 (μ-opioid receptor [4]) of 147 ± 7.61 nM. For the same compound, the Emax (μ-opioid receptor [4]; [6]) was 38.7 ± 2.96%, the EC50 (κ-opioid receptor) was 30 ± 7.2 nM and the Emax (κ-opioid receptor; [7]) was 103.7 ± 0.33%.
With `COc1ccc2c(c1)[C@]13CCN(CC4CC4)[C@H](C2)[C@]12CC[C@@](N(C)C)(CO2)C3` [Compound 28, (4bR,6S,8aS,9R)-11-(cyclopropylmethyl)-3-methoxy-N,N-dimethyl-5,6,7,8,9,10-hexahydro-9,4b-(epiminoethano)-8a,6-(epoxymethano)phenanthren-6-amine] the EC50 (μ-opioid receptor [1]) was 1920 ± 693 nM, the Emax (μ-opioid receptor [1]; [5]) was 18.8 ± 1.46% and the EC50 (μ-opioid receptor [4]) was 339 ± 31.6 nM. It also gave an Emax (μ-opioid receptor [4]; [6]) of 68.7 ± 0.67%, an EC50 (κ-opioid receptor) of 132 ± 25.7 nM and an Emax (κ-opioid receptor; [7]) of 107 ± 2.4%.
`COc1ccc2c(c1)[C@]13CCN(CC4CC4)[C@H](C2=O)[C@]12CC[C@](O)(C3)C(=O)O2` [Compound 33, (4bR,6S,8aS,9S)-11-(cyclopropylmethyl)-6-hydroxy-3-methoxy-5,6,7,8-tetrahydro-9,4b-(epiminoethano)-8a,6-(epoxymethano)phenanthrene-10,15(9H)-dione] was tested, and the Ki (μ-opioid receptor [2]; bound given in μM) was greater than 20 µM and the Ki [3] was 3350 ± 325 nM.

Reference: US9862726B2, “Opioid receptor modulating oxabicyclo[2.2.2]octane morphinans” (PURDUE PHARMA L.P., priority 2013, dated 2018)
